According to US9540325B2, “N1-cyclic amine-N5-substituted phenyl biguanide derivatives, methods of preparing the same and pharmaceutical composition comprising the same” (Immunomet Therapeutics, Inc., priority 2011, dated 2017):

Columns and labels:
[1] = tested on: MCF7 cells (breast cancer stem cell, mammosphere); assay: Measurement of effect of inhibiting mammosphere formation; assay type: cell-based, human; details: MCF7, 8 days; for Number of Mammospheres: size 50 um or more; for inhibition at 0.1 µM / inhibition at 1 µM / inhibition at 5 µM / inhibition at 10 µM: Homo sapiens, 192 h, vs untreated, read-out: Mammosphere formation inhibition rate (%)
Excerpt: The cancer stem cells refer to cancer cells that have self-regeneration or differentiation capacity which is characteristically innate to stem cells. Here, the cancer stem cells show resistance to conventional anticancer therapy and poor prognosis. Therefore, the biguanide derivative has an effect of inhibiting cancer recurrence by inhibiting formation and proliferation of cancer stem cells, especially, breast cancer stem cells (mammosphere). Accordingly, the effect of the biguanide derivative of inhibiting breast cancer stem cell (mammosphere) formation was measured in an MCF7 cell line derived from human breast cancer forming mammospheres, and simple experimental methods are described, as follows.
MCF7 cells derived from human breast cancer were cultured (culture temperature: 37° C., pH: 7.0 to 7.4) in a DMEM medium supplemented with 10% (v/v) fetal bovine serum (commercially available from Gibco Life Technologies (US)) so that the MCF7 cells could grow to approximately 80% confluency and used in an experiment to determine an ability to form mammospheres. After MCF7 cells were made to single cells and the number of cell was counted, MCF7 cells were put in to a 24-well plate at 2,000 cells/well. […] Also, a culture media for forming mammospheres was prepared so that a serum-free DMEM/F12 medium could include 2% B27 (commercially available from Invitrogen), 20 ng/ml EGF (commercially available from Sigma), 5 μg/ml insulin (commercially available from Sigma) and 1 μg/ml hydrocortisone (commercially available from Sigma). Cells were cultured in a CO2 incubator for 24 hours and treated with each of the compounds synthesized in the examples at contents of 0.1 μM, 1 μM, 5 μM and 10 μM. Then, the cultured cells were added to the culture media for forming mammospheres so that a final volume of the culture broth could be adjusted to 1 ml. The cells were treated with the same concentrations of phenformin hydrochloride as the control and cultured in a CO2 incubator for 8 days. Thereafter, the mammosphere-forming efficiency and size of the cells were observed. After 8 days, the number of mammospheres having a size of 50 um or more was determined to calculate the mammosphere-forming efficiency (MFE (%)). The MFE (%) is calculated according to the following Equation 1.
When the cells were cultured for 8 days, MFE (%) of the cells on a plate treated with the phenformin hydrochloride and the compounds synthesized in the examples was compared with MFE (%) of the cells on a plate that was not treated with the compounds. The results are listed as the mammosphere formation inhibition rate (%) in the following Table 4, and the mammosphere-forming efficiencies of the respective compounds are shown in FIG. 1.

HCT116 cells = assay: Measurement of effect of inhibiting cancer cell proliferation (MTT); assay type: cell-based, human; details: for inhibition at 100 µM: HCT-116, 100 μM, read-out: Cell Growth Inhibition (%) at 100 μM
How it was run: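 HCT116 cells (~5,000/well, DMEM with 10% FBS) treated 48 h with compound at 0.39–100 μM, metformin hydrochloride control at 0.1–25 mM. Viability by MTT (3 h, formazan in DMSO, A560) relative to untreated wells; GIC50 from the viability curve, also viability at 100 μM.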

AMPKα = assay: Measurement of AMPK activation effect (AMPKα Thr172 phosphorylation immunoassay) in MCF7 cells; assay type: cell-based, human; details: 24 hours; for AMPK activation effect at 10 μM (%) / AMPK activation effect at 50 μM (%): relative to untreated cells; for AMPK activation effect AC150: concentration at which AMPK activation reached 150%
How it was run: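 MCF7 cells in DMEM/10% FBS were treated 24 h with derivatives at 5, 10 and 50 μM (metformin hydrochloride control, 0.05–10 mM). AMPKα Thr172 phosphorylation was measured by immunoassay on 20 μg lysate. AC150 (concentration giving 150% activation) came from concentration–response curves, with activation also reported at fixed concentrations.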

| melting point | GI50 (HCT116 cells; Homo sapiens, HCT-116, 48 h) | GI50 (HCT116 cells; 48 hours, hydrochloride) | SMILES | MFE (%) (mammosphere-forming efficiency) ([1]; 0.1 μM) | Number of Mammospheres ([1]; 0.1 μM) | MFE (%) (mammosphere-forming efficiency) ([1]; 1 μM) | Number of Mammospheres ([1]; 1 μM) | MFE (%) (mammosphere-forming efficiency) ([1]; 5 μM) | Number of Mammospheres ([1]; 5 μM) | MFE (%) (mammosphere-forming efficiency) ([1]; 10 μM) | Number of Mammospheres ([1]; 10 μM) | inhibition at 0.1 µM ([1]; 0.1 μM) | inhibition at 1 µM ([1]; 1 μM) | inhibition at 5 µM ([1]; 5 μM) | inhibition at 10 µM ([1]; 10 μM) | inhibition at 100 µM (HCT116 cells; Homo sapiens, 48 hours) | AMPK activation effect at 10 μM (%) (AMPKα) | AMPK activation effect at 50 μM (%) (AMPKα) | AMPK activation effect AC150 (AMPKα) |
| --- | --- | --- | --- | --- | --- | --- | --- | --- | --- | --- | --- | --- | --- | --- | --- | --- | --- | --- | --- |
| 172 to 174 °C | 48.2 µM | – | Cl.N=C(NC(=N)N1CCCCC1)Nc1cccc(Cl)c1 [Example 20, N1-piperidine-N5-(3-chloro)phenyl biguanide hydrochloride] | 3.6% | 72 | 5.2% | 103 | 3.8% | 75 | 1.5% | 29 | 30.1% | 0% | 27.2% | 71.8% | 97.5% | 236% | 558% | 3.2 µM |
| 213 to 215 °C | 41.5 µM | – | Cl.N=C(NC(=N)N1CCCCCC1)Nc1cccc(Cl)c1 [Example 21, N1-azepane-N5-(3-chloro)phenyl biguanide hydrochloride] | 5.8% | 115 | 5.3% | 105 | 3.6% | 71 ± 4.2 | 2.3% | 46 ± 2.1 | 30.1% | -1.9% | 31.1% | 55.8% | 97% | 211% | 653% | 4.8 µM |
| 283 to 284 °C | – | 22.7 µM | Cl.N=C(NC(=N)N1CCCC1)Nc1ccc(C(F)(F)F)cc1 [Example 26, N1-pyrrolidine-N5-(4-trifluoromethyl)phenyl biguanide hydrochloride] | 5.3% | 105 | 5.6% | 112 | 6.0% | 120 | 3.6% | 72 ± 11.3 | -11.7% | -8.7% | -16.5% | 30.1% | 97.6% | 255% | 642% | 3.1 µM |
| 273 to 274 °C | 6.7 µM | – | Cl.N=C(NC(=N)N1CCCCC1)Nc1ccc(C(F)(F)F)cc1 [Example 27, N1-piperidine-N5-(4-trifluoromethyl)phenyl biguanide hydrochloride] | 5.2% | 103 | 5.2% | 105 ± 16.3 | 3.0% | 61 ± 3.5 | 1.6% | 32 | 0% | -1.5% | 41.3% | 68.9% | 97.7% | 455% | – | 2.4 µM |
